In data set [1] the test system is CFLP-Mäusen. Briefly: Maximal electroshock [MES] anticonvulsant test. In kind it is in vivo. The following applies: Mus musculus, po; 20 mg/kg peroral, measured 1 hour after dosing, groups of 10 mice; corneal electrode 20 mA, 0,2 s; protection = absence of tonic hindlimb extension; read-out: Hemmwirkung in % in Bezug auf den maximalen Elektroschock. The text has this: (§1) Die pharmakologischen Wirkungen der erfindungsgemäßen Tetrahydro-1,2,4-oxadiazin-5-onderivate der allgemeinen Formel I wurden in Tierversuchen nach den üblichen pharmakologischen Verfahrensweisen nachgewiesen, wobei als Vergleichssubstanzen die anerkannt gut wirksamen bekannten Handelsprodukte 5,5-Diphenylhydantoin [Vergleichssubstanz A] und 3-Methyl-5-äthyl-5-phenylhydantoin [Vergleißhssubstanz B] gleicher Wirkungsrichtung verwendet wurden. Die Tierversuche wurden mit CFLP-Mäusen (LATI, Gödöllo, Ungarn) von gemischtem Geschlecht (Körpergewicht: 18 bis 22 g) mit Gruppen von je 10 Tieren durchgeführt. Die zu untersuchenden Verbindungen wurden in einer 5%-igen wäßrigen Lösung von Polyoxyäthylensorbitanmonooleat [Tween 80® suspendiert und diese Suspensionen wurden.auf peroralem Wege mit einer Sonde den Tieren verabreicht. Die Wirkstoffe wurden in den zur Untersuchung der krampfhemmenden beziehungsweise antikonvulsiven Wirkung durchgeführten Versuchen in Dosen von 20 mg/kg Körpergewicht und zur Messung der neurotoxischen Wirkung in Dosen von 80 mg/kg Körpergewicht verabreicht. Die Wirkungen wurden 1 Stunde nach der Verabreichung durch die im folgenden beschriebenen Verfahrensweisen gemessen.
a) Maximaler Elektroschock [MES]
Die Tiere wurden nach der Verfahrensweise von E. A. Swinyard und Mitarbeitern (J. Pharmacol. 106 [1952], 319) mit einer Hornhautelektrode beziehungsweise Corneal--Elektrode (20 mA, 0,2 Sekunde) geschockt. 100% der Blindversuchs- beziehungsweise Kontrolltiere reagierten auf diesen Reiz mit einem tonischen Streckkrampf (extensorischen Krampf) der hinteren Gliedmaßen. Das Unterbleiben dieser Reaktion wurde als unter der Wirkung der Behandlung eingetretener Schutz gewertet.
(Protection in the maximal electroshock model is a classic sign of anticonvulsant action.)

The subject of data set [2] is CFLP-Mäusen. Briefly: Inhibition of pentamethylenetetrazole (pentetrazole) convulsion. The format is in vivo. The note with it: Mus musculus, sc; 20 mg/kg peroral, 1 hour after dosing, groups of 10 mice; 125 mg/kg Pentamethylentetrazol subcutaneous; read-out: Hemmwirkung in % in Bezug auf den Pentamethylentetrazolkrampf tonischen Streckkrampf.
Description: as §1
b) Hemmwirkung gegen den Pentamethylentetrazolkrampf [Pentetrazolkrampf]
Es wurden 125 mg Pentamethylentetrazol/kg Körpergewicht nach der Verfahrensweise von Cr. N. Everett und R. K. Richards (J. Pharmacol. Exp: Therap. 81 [1944], 402) den Tieren subkutan verabreicht. 1 Stunde nach der Verabreichung des zu untersuchex den Wirkstoffes wurde die Wirkung beobachtet: Als Schutiwirkung wurde das Unterbleiben des klonischen Krampfes beriehungsweise des tonischen Streckkrampfes der hinteren GliedmaBen bewertet.

The nature of data set [3]: Acute toxicity (LD50). The note with it: mouse, in vivo, po; single peroral dose, 14 days observation, mice; read-out: Peroraler LD50-Wert (converted).
Description: as §1
Die Toxizität der zu untersuchenden Verbindungen wurde nach 1-maliger Verabreichung von verschiedenen Dosen durch 14 Tage lange Beobachtung der Tiere ermittelt. Die LD50-Werte (die bei 50% der Tiere tödlichen Dosen) wurden auf Grund des Prozentsatzes der innerhalb 14 Tage verendeten Tiere berechnet.

SMILES strings stand for the structures.

Usually LD50 stands for the dose expected to kill half of the subjects tested. As to `CC(=O)N1OCC(=O)NC1c1ccc(F)cc1` (stereo not drawn) [Beispiel 13, 2-Acetyl-3-(4'-fluorphenyl)-tetrahydro-1,2,4-oxadiazin-5-on], the responders at 20 mg/kg in data set [1] and in data set [2] was 40% in each case. In addition, the LD50 at 336 h in data set [3] is 800 mg/kg.

Take `O=C1CONC(c2ccc(O)cc2)N1` (stereo not drawn) [Beispiel 63]: the figures for the responders at 20 mg/kg in data set [1] and in data set [2] were 40% and 20%, respectively. For the same compound, in data set [3], the LD50 at 336 h is 800 mg/kg.

For the compound `CC(=O)N1OCC(=O)N(C(C)=O)C1c1ccccc1` (stereo not drawn) [Beispiel 8, 2,4-Diacetyl-3-phenyltetrahydro-1,2,4-oxadiazin-5-on], the responders at 20 mg/kg turned out to be 60% in data set [1] and 40% in data set [2]. In addition, the median lethal dose (LD50) at 336 h in data set [3] is 1000 mg/kg.

`CC(=O)N1OC(C)C(=O)NC1c1ccccc1` (racemic) [Beispiel 61, 2-Acetyl-3-phenyl-6-methyltetrahydro-1,2,4-oxadiazin-5-on]: the results for the responders at 20 mg/kg in data set [1] and in data set [2] were 20% and 50%, respectively. In addition, the median lethal dose (LD50) at 336 h in data set [3] is 1000 mg/kg.

Take `CCC1(c2ccccc2)NC(=O)N(C)C1=O` (stereo not drawn) [Vergleichssubstanz B, 3-Methyl-5-äthyl-5-phenylhydantoin, reference compound]: the responders at 20 mg/kg came out at 10% in data set [1] and 50% in data set [2]. Moreover, the LD50 at 336 h in data set [3] is 476 mg/kg.

Consider `CC(=O)N1OCC(=O)NC1c1cccc2ccccc12` (stereo not drawn) [Beispiel 15], for which the responders at 20 mg/kg in data set [1] was 40%. Also, in data set [3], the LD50 at 336 h is 800 mg/kg.

For the compound `CC(=O)N1OCC(=O)NC1c1cccs1` (stereo not drawn) [Beispiel 16], the responders at 20 mg/kg in data set [1] is 20%; in data set [2], 40%. Further, in data set [3], the 50% lethal dose (LD50) at 336 h is 800 mg/kg.

For the compound `CC(=O)N1OCC(=O)NC1c1ccccc1` (stereo not drawn) [Beispiel 2, 2-Acetyl-3-phenyltetrahydro-1,2,4-oxadiazin-5-on], the results for the responders at 20 mg/kg in data set [1] and in data set [2] were 70% and 90%, respectively. In addition, the LD50 at 336 h in data set [3] is 1190 mg/kg.

Take `O=C1NC(=O)C(c2ccccc2)(c2ccccc2)N1` [Vergleichssubstanz A, 5,5-Diphenylhydantoin, reference compound]: the responders at 20 mg/kg was determined as 90% in data set [1] and 80% in data set [2]. The 50% lethal dose (LD50) at 336 h in data set [3] was 279 mg/kg.

`CC(=O)N1OCC(=O)NC1c1ccc(Br)cc1` (stereo not drawn) [Beispiel 14]: the responders at 20 mg/kg in data set [1] is 40%. Also, the LD50 at 336 h in data set [3] is 800 mg/kg.

With `CC(=O)N1OCC(=O)NC12CCCCC2` [Beispiel 83], the responders at 20 mg/kg in data set [1] was found to be 40%. Further, in data set [3], the LD50 at 336 h was 1000 mg/kg.

For the compound `CCOC(=O)N1OCC(=O)NC1c1ccccc1` (stereo not drawn) [Beispiel 89], the responders at 20 mg/kg in data set [2] was 20%. Also, in data set [3], the 50% lethal dose (LD50) at 336 h was 1000 mg/kg.

Regarding `CC(=O)N1OCC(=O)NC1c1ccc(C(=O)O)cc1` (stereo not drawn) [Beispiel 84], in data set [1], the responders at 20 mg/kg came to 40%. In addition, the median lethal dose (LD50) at 336 h in data set [3] was 1000 mg/kg.

With `CC(=O)N1OC(Cc2ccccc2)C(=O)NC1c1ccccc1` (racemic) [Beispiel 60], the responders at 20 mg/kg in data set [2] is 20%. Further, the median lethal dose (LD50) at 336 h in data set [3] was 1000 mg/kg.
